pEC50: −log10 of the molar value.
Experiments:
[1] = molecular target: T1, Peroxisome proliferator-activated receptor gamma (Homo sapiens, UniProt P37231); format: cell-based, Huh-7
T1 sequence (P37231 whole entry): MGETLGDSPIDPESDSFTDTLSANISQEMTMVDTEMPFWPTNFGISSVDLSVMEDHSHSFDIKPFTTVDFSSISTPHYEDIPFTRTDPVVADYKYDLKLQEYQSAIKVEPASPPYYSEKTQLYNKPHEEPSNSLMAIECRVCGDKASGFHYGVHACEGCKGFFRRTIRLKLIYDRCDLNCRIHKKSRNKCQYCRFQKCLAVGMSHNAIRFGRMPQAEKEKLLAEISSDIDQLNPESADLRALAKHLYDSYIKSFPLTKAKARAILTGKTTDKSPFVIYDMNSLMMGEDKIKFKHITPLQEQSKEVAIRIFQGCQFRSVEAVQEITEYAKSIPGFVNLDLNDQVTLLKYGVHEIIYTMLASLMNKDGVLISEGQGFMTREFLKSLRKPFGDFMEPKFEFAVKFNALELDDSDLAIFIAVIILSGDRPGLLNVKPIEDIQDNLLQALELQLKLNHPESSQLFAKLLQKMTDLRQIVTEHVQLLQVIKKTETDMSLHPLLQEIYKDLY
Description: Activity at human PPAR gamma in Huh7 cells by transactivation assay

[2] = molecular target: T2, Peroxisome proliferator-activated receptor delta (Homo sapiens, UniProt Q03181); experiment: Activity at human PPAR delta in Huh7 cells by transactivation assay; format: cell-based, Huh-7
T2 sequence (Q03181 whole entry): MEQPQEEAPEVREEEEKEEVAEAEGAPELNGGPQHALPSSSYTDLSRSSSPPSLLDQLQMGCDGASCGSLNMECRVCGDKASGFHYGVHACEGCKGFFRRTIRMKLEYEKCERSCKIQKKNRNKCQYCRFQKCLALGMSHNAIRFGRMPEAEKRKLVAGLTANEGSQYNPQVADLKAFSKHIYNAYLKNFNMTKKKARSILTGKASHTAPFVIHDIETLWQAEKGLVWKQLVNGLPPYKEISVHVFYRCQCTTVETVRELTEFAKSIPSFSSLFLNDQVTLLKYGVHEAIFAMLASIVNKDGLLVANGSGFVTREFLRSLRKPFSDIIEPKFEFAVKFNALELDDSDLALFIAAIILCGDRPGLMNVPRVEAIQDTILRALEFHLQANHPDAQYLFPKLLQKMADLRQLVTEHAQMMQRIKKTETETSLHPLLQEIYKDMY

[3] = molecular target: T3, Peroxisome proliferator-activated receptor alpha (Homo sapiens, UniProt Q07869); experiment: (§1) Activity at human PPAR alpha in Huh7 cells by transactivation assay; format: cell-based, Huh-7
T3 sequence (Q07869 whole entry): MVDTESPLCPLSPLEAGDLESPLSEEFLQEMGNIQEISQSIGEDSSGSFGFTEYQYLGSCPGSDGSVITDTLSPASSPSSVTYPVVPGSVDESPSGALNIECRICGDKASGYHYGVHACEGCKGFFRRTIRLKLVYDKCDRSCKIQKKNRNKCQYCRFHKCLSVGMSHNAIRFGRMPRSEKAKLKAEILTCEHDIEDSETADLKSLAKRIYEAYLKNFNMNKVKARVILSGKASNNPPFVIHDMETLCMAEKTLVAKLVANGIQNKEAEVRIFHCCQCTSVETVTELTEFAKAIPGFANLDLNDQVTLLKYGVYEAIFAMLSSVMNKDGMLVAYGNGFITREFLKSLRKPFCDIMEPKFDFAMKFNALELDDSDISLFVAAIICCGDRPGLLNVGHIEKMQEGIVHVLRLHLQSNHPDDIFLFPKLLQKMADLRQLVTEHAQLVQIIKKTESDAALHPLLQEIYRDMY

[4] = molecular target: T4, Peroxisome proliferator-activated receptor alpha (Homo sapiens) (UniProt Q07869); experiment: as §1; format: cell-based; settings: Huh-7, filed as agonist
T4 sequence (whole entry): T3 sequence (Q07869 whole entry)

Row | Structure (SMILES) | pEC50 [1] | pEC50 [2] | pEC50 [3] | Activity [4]
1 | CCCc1c(OCCCn2ccc3c(OCC(=O)O)cccc32)ccc2cc(C(=O)c3ccccc3)ccc12 | 5.37 | < 5.00 | 6.69 | 
2 | CCCc1c(OCCCOc2ccc3c(ccn3CC(=O)O)c2)ccc2cc(C(=O)c3ccccc3)ccc12 |  |  |  | Agonist
3 | CCCc1c(OCCCn2ccc3c(OC(C)(C)C(=O)O)cccc32)ccc2cc(C(=O)c3ccccc3)ccc12 | 6.68 | 5.37 | 6.55 | Agonist
4 | CCCc1c(OCCCn2ccc3ccc(OCC(=O)O)cc32)ccc2cc(C(=O)c3ccccc3)ccc12 | 5.46 | 5.16 | 5.68 | 
5 | CCCc1c(OCCCn2ccc3ccc(OC(C)(C)C(=O)O)cc32)ccc2cc(C(=O)c3ccccc3)ccc12 | 6.33 | 5.33 | 5.96 | 
6 | CCCc1c(OCCCn2ccc3cc(OC(C)(C)C(=O)O)ccc32)ccc2cc(C(=O)c3ccccc3)ccc12 | 6.19 | < 5.00 | 6.91 | Agonist
7 | CCCc1c(OCCCn2ccc3cc(OCC(=O)O)ccc32)ccc2cc(C(=O)c3ccccc3)ccc12 | 5.66 | < 5.00 | 7.49 | Agonist

Reference: ChEMBL document CHEMBL1137405, “Structural basis for the structure-activity relationships of peroxisome proliferator-activated receptor agonists” (J Med Chem, 2006)
